Source: ChEMBL document CHEMBL5543094, “Exploration of P1 and P4 modifications of nirmatrelvir: Design, synthesis, biological evaluation, and X-ray structural studies of SARS-CoV-2 Mpro inhibitors” (Eur J Med Chem, 2024)
Calls of active or inactive are those of the source. The rule behind the calls is not given here.

Tests used:
[1] = molecular target: Replicase polyprotein 1ab (Severe acute respiratory syndrome coronavirus 2, UniProt P0DTD1); assay: Inhibition of N-terminal hexa-histidine tagged SARS-CoV-2 main protease expressed in Escherichia coli BL21 (DE3) using HiLyte Fluor 488TM-ESATLQSGLRKAK-QXL520TM-NH2 as substrate by FRET assay
[2] = tested on: SARS-CoV-2; assay: (§1) Antiviral activity against SARS-CoV-2 infected in African green monkey Vero E6 cells assessed as reduction in viral replication pre-infected with cells for 1 hr followed by compound treatment and measured after 3 days by RT-qPCR analysis; assay type: functional, organism-based; conditions: Severe acute respiratory syndrome coronavirus 2, Vero C1008
[3] = tested on: SARS-CoV-2; assay: as §1, with “Potency index, ratio of nirmatrelvir EC50 to test compound EC50 for antiviral” for “Antiviral”; assay type: functional, Severe acute respiratory syndrome coronavirus 2; conditions: time 3 day
[4] = tested on: SARS-CoV-2; assay: Antiviral activity against SARS-CoV-2 WK-521 infected in African green monkey VeroE6/TMPRSS2 cells assessed as reduction in virus infectivity at 10 to 100 uM by immunocytochemistry analysis; assay type: functional, organism-based; conditions: Severe acute respiratory syndrome coronavirus 2, dose 10-100 µM
[5] = tested on: SARS-CoV-2; assay: Antiviral activity against SARS-CoV-2 WK-521 infected in African green monkey VeroE6/TMPRSS2 cells assessed as reduction in virus infectivity at 1 uM by immunocytochemistry analysis; assay type: functional, organism-based; conditions: Severe acute respiratory syndrome coronavirus 2

Row | SMILES | Ki [1] [nM] | EC50 [2] [nM] | Ratio EC50 [3] | Activity [4] | Activity [5]
1 | CC(C)(C)[C@H](NC(=O)OCc1ccccn1)C(=O)N1C[C@H]2[C@@H]([C@H]1C(=O)N[C@H](C#N)C[C@@H]1CCNC1=O)C2(C)C | 32.2 | 29700 | – | – | –
2 | CCC(CC)COC(=O)[C@H](C)N[P@](=O)(OC[C@H]1O[C@@](C#N)(c2ccc3c(N)ncnn23)[C@H](O)[C@@H]1O)Oc1ccccc1 | – | 3200 | – | – | –
3 | CC(C)(C)C(=O)N[C@H](C(=O)N1C[C@H]2[C@@H]([C@H]1C(=O)N[C@H](C#N)C[C@@H]1CCNC1=O)C2(C)C)C(C)(C)C | 22.1 | 2300 | – | – | –
4 | CC(C)(C)[C@H](NC(=O)C(Cl)(Cl)Cl)C(=O)N1C[C@H]2[C@@H]([C@H]1C(=O)N[C@H](C#N)C[C@@H]1CCNC1=O)C2(C)C | 0.2 | 1600 | – | – | –
5 | CC(C)(C)[C@H](NC(=O)C(F)(F)F)C(=O)N1C[C@H]2[C@@H]([C@H]1C(=O)N[C@H](C#N)C[C@@H]1CCCNC1=O)C2(C)C | 0.04 | 260 | 7 | Active | –
6 | CC(C)(C)[C@H](NC(=O)OCc1ccncc1)C(=O)N1C[C@H]2[C@@H]([C@H]1C(=O)N[C@H](C#N)C[C@@H]1CCCNC1=O)C2(C)C | 7.8 | 27100 | – | – | –
7 | CC(C)(C)[C@H](NC(=O)OCc1ccccc1)C(=O)N1C[C@H]2[C@@H]([C@H]1C(=O)N[C@H](C#N)C[C@@H]1CCNC1=O)C2(C)C | 0.025 | 290 | – | – | –
8 | CC(C)(C)[C@H](NC(=O)OCc1cccnc1)C(=O)N1C[C@H]2[C@@H]([C@H]1C(=O)N[C@H](C#N)C[C@@H]1CCCNC1=O)C2(C)C | 0.094 | 3400 | – | – | –
9 | CC(C)(C)[C@H](NC(=O)C(Cl)(Cl)Cl)C(=O)N1C[C@H]2[C@@H]([C@H]1C(=O)N[C@H](C#N)C[C@@H]1CCCNC1=O)C2(C)C | 1.1 | 270 | >7 | – | –
10 | CC(C)(C)[C@H](NC(=O)c1ccccc1)C(=O)N1C[C@H]2[C@@H]([C@H]1C(=O)N[C@H](C#N)C[C@@H]1CCNC1=O)C2(C)C | 36.9 | 17000 | – | – | –
11 | CC(=O)N[C@H](C(=O)N1C[C@H]2[C@@H]([C@H]1C(=O)N[C@H](C#N)C[C@@H]1CCNC1=O)C2(C)C)C(C)(C)C | 0.44 | 4000 | – | – | –
12 | CC(C)(C)[C@H](NC(=O)OCc1cccnc1)C(=O)N1C[C@H]2[C@@H]([C@H]1C(=O)N[C@H](C#N)C[C@@H]1CCNC1=O)C2(C)C | 0.09 | 35 | – | – | –
13 | CC(C)(C)[C@H](NC(=O)C(F)(F)F)C(=O)N1C[C@H]2[C@@H]([C@H]1C(=O)N[C@H](C#N)C[C@@H]1CCNC1=O)C2(C)C | – | – | – | Active | inactive
14 | CC(C)(C)[C@H](NC(=O)C(F)(F)F)C(=O)N1C[C@H]2[C@@H]([C@H]1C(=O)N(C(=O)C(F)(F)F)[C@H](C#N)C[C@@H]1CCNC1=O)C2(C)C | 32300 | 100000 | – | – | –
15 | CC(C)(C)[C@H](NC(=O)OCc1ccncc1)C(=O)N1C[C@H]2[C@@H]([C@H]1C(=O)N[C@H](C#N)C[C@@H]1CCNC1=O)C2(C)C | 0.49 | 40100 | – | – | –
16 | CC(C)(C)NC(=O)N[C@H](C(=O)N1C[C@H]2[C@@H]([C@H]1C(=O)N[C@H](C#N)C[C@@H]1CCNC1=O)C2(C)C)C(C)(C)C | – | 100000 | – | – | –
